Results from ChEMBL document CHEMBL3286148, “Aminoazabenzimidazoles, a novel class of orally active antimalarial agents” (J Med Chem, 2014).
Values after ≈ are worked out from the molar mass of the structure shown.

What was measured:
[1] = Cmax in Plasmodium falciparum 3D70087/N9 infected NODscidIL2Rgamma-null mouse at 3 mg/kg, po by LC-MS/MS analysis; format: ADME, organism-based; set-up: dose 3 mg/kg, route oral; settings: in vivo
[2] = Cmax in Plasmodium falciparum 3D70087/N9 infected NODscidIL2Rgamma-null mouse at 10 mg/kg, po by LC-MS/MS analysis; format: ADME, organism-based; set-up: dose 10 mg/kg, route oral; settings: in vivo
[3] = Cmax in Plasmodium falciparum 3D70087/N9 infected NODscidIL2Rgamma-null mouse at 30 mg/kg, po by LC-MS/MS analysis; format: ADME, organism-based; set-up: dose 30 mg/kg, route oral; settings: in vivo
[4] = Cmax in Plasmodium falciparum 3D70087/N9 infected NODscidIL2Rgamma-null mouse at 50 mg/kg, po by LC-MS/MS analysis; format: ADME, organism-based; set-up: dose 50 mg/kg, route oral; settings: in vivo
[5] = test system: Mus musculus; experiment: Dose normalized Cmax in Plasmodium falciparum 3D70087/N9 infected NODscidIL2Rgamma-null mouse at 3 mg/kg, po by LC-MS/MS analysis; format: ADME, organism-based; set-up: dose 3 mg/kg, route oral; settings: in vivo
[6] = test system: Mus musculus; experiment: Dose normalized Cmax in Plasmodium falciparum 3D70087/N9 infected NODscidIL2Rgamma-null mouse at 10 mg/kg, po by LC-MS/MS analysis; format: ADME, organism-based; set-up: dose 10 mg/kg, route oral; settings: in vivo
[7] = test system: Mus musculus; experiment: Dose normalized Cmax in Plasmodium falciparum 3D70087/N9 infected NODscidIL2Rgamma-null mouse at 30 mg/kg, po by LC-MS/MS analysis; format: ADME, organism-based; set-up: dose 30 mg/kg, route oral; settings: in vivo
[8] = test system: Mus musculus; experiment: Dose normalized Cmax in Plasmodium falciparum 3D70087/N9 infected NODscidIL2Rgamma-null mouse at 50 mg/kg, po by LC-MS/MS analysis; format: ADME, organism-based; set-up: dose 50 mg/kg, route oral; settings: in vivo
[9] = Tmax in Plasmodium falciparum 3D70087/N9 infected NODscidIL2Rgamma-null mouse at 3 mg/kg, po by LC-MS/MS analysis; format: ADME, organism-based; set-up: dose 3 mg/kg, route oral; settings: in vivo
[10] = Tmax in Plasmodium falciparum 3D70087/N9 infected NODscidIL2Rgamma-null mouse at 10 mg/kg, po by LC-MS/MS analysis; format: ADME, organism-based; set-up: dose 10 mg/kg, route oral; settings: in vivo
[11] = Tmax in Plasmodium falciparum 3D70087/N9 infected NODscidIL2Rgamma-null mouse at 30 mg/kg, po by LC-MS/MS analysis; format: ADME, organism-based; set-up: dose 30 mg/kg, route oral; settings: in vivo
[12] = Tmax in Plasmodium falciparum 3D70087/N9 infected NODscidIL2Rgamma-null mouse at 50 mg/kg, po by LC-MS/MS analysis; format: ADME, organism-based; set-up: dose 50 mg/kg, route oral; settings: in vivo
[13] = AUC (0 to 23 hrs) in Plasmodium falciparum 3D70087/N9 infected NODscidIL2Rgamma-null mouse at 3 mg/kg, po by LC-MS/MS analysis; format: ADME, organism-based; set-up: time < 23 hr, dose 3 mg/kg, route oral; settings: plasma
[14] = AUC (0 to 23 hrs) in Plasmodium falciparum 3D70087/N9 infected NODscidIL2Rgamma-null mouse at 10 mg/kg, po by LC-MS/MS analysis; format: ADME, organism-based; set-up: time < 23 hr, dose 10 mg/kg, route oral; settings: plasma
[15] = AUC (0 to 23 hrs) in Plasmodium falciparum 3D70087/N9 infected NODscidIL2Rgamma-null mouse at 30 mg/kg, po by LC-MS/MS analysis; format: ADME, organism-based; set-up: time < 23 hr, dose 30 mg/kg, route oral; settings: plasma
[16] = AUC (0 to 23 hrs) in Plasmodium falciparum 3D70087/N9 infected NODscidIL2Rgamma-null mouse at 50 mg/kg, po by LC-MS/MS analysis; format: ADME, organism-based; set-up: time < 23 hr, dose 50 mg/kg, route oral; settings: plasma
[17] = test system: Mus musculus; experiment: Dose normalized AUC (0 to 23 hrs) in Plasmodium falciparum 3D70087/N9 infected NODscidIL2Rgamma-null mouse at 3 mg/kg, po by LC-MS/MS analysis; format: ADME, organism-based; set-up: dose 3 mg/kg, route oral; settings: in vivo
[18] = test system: Plasmodium falciparum; experiment: Antiplasmodial activity against Plasmodium falciparum 3D70087/N9 infected in po dosed NODscidIL2Rgamma-null mouse assessed as reduction of parasite level in peripheral blood qd for 4 days by flow cytometry analysis; format: functional; settings: 96 h
[19] = test system: Mus musculus; experiment: AUC at ED90 in po dosed Plasmodium falciparum 3D70087/N9 infected NODscidIL2Rgamma-null mouse after 7 days; format: ADME, organism-based, Plasma; settings: in vivo, 168 h
[20] = Selectivity index, ratio of IC50 for human A549 cells to IC50 for Plasmodium falciparum; format: toxicity, cell-based; settings: read-out: Ratio IC50
[21] = target: Voltage-gated inwardly rectifying potassium channel KCNH2 (Homo sapiens, UniProt Q12809); experiment: Inhibition of human ERG
Sequence of Voltage-gated inwardly rectifying potassium channel KCNH2 (Q12809 whole entry): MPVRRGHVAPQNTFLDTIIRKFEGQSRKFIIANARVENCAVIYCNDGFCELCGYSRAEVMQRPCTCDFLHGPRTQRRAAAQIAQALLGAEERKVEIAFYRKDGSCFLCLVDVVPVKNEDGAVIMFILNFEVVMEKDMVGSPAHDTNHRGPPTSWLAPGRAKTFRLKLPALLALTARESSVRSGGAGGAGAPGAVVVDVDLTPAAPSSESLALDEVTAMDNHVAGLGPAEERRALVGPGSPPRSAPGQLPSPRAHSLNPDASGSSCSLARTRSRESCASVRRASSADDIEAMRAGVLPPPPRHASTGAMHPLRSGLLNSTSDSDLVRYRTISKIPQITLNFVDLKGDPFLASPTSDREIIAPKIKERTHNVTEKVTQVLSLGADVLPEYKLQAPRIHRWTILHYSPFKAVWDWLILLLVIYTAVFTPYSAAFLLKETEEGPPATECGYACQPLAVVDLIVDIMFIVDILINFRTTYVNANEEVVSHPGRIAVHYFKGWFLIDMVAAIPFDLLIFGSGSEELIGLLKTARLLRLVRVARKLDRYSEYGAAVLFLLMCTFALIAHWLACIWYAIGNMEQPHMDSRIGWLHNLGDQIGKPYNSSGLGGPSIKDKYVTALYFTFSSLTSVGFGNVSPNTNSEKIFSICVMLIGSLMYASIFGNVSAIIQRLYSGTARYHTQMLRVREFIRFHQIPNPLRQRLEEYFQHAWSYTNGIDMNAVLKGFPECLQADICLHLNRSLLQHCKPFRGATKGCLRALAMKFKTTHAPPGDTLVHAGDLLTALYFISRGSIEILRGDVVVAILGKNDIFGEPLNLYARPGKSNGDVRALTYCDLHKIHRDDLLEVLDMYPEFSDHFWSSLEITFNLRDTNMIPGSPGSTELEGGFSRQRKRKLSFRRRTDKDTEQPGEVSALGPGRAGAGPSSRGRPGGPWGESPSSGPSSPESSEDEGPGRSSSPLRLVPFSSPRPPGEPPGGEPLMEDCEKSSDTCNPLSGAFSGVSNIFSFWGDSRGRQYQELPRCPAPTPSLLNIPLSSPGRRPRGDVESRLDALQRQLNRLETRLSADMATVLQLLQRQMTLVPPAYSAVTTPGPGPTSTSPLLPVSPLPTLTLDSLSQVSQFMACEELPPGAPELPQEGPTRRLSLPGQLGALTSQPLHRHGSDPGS

[22] = Clearance in rat hepatocytes assessed per 1E6 cells; format: ADME, cell-based, Hepatocyte; settings: read-out: CLH
[23] = Clearance in human liver microsomes; format: ADME; settings: read-out: CLH
[24] = Clearance in mouse liver microsomes; format: ADME; settings: read-out: CLH
[25] = Aqueous solubility of the compound; format: physicochemical; settings: buffer
[26] = Lipophilicity, log D of the compound; format: physicochemical; settings: octanol/water
[27] = Fraction unbound in human plasma; format: ADME, cell-free
[28] = target: Cytochrome P450 3A4 (Homo sapiens, UniProt P08684); experiment: Inhibition of CYP3A4 (unknown origin); format: ADME
Sequence of Cytochrome P450 3A4 (P08684 whole entry): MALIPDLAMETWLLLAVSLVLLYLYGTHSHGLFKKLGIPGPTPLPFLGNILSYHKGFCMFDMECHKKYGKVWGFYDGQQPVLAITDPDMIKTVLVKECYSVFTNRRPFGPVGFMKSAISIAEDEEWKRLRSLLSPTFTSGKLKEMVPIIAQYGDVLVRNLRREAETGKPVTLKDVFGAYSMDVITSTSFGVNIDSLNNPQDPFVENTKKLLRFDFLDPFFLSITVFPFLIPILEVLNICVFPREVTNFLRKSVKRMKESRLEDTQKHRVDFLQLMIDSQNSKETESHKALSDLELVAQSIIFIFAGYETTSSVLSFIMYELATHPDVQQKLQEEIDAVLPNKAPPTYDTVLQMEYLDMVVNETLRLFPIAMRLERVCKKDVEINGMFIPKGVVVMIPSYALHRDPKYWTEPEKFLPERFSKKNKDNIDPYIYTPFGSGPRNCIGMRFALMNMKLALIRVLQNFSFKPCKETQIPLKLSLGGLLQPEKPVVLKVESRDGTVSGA

[29] = target: Cytochrome P450 2D6 (Homo sapiens, UniProt P10635); experiment: Inhibition of CYP2D6 (unknown origin); format: ADME
Sequence of Cytochrome P450 2D6 (P10635 whole entry): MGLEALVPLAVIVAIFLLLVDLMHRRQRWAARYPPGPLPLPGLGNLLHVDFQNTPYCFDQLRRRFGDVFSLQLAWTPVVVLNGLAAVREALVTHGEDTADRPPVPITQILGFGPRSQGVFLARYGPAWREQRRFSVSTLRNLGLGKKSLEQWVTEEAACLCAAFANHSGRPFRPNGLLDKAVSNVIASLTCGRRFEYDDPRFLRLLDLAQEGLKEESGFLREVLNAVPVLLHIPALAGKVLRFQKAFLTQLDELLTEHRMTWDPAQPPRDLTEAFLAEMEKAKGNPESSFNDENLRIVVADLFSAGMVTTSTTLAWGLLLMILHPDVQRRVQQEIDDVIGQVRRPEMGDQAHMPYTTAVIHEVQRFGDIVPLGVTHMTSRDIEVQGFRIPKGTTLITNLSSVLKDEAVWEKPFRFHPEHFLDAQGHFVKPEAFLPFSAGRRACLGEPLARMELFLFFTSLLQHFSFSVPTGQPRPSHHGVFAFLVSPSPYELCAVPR

[30] = target: Cytochrome P450 2C9 (Homo sapiens, UniProt P11712); experiment: Inhibition of CYP2C9 (unknown origin); format: ADME
Sequence of Cytochrome P450 2C9 (P11712 whole entry): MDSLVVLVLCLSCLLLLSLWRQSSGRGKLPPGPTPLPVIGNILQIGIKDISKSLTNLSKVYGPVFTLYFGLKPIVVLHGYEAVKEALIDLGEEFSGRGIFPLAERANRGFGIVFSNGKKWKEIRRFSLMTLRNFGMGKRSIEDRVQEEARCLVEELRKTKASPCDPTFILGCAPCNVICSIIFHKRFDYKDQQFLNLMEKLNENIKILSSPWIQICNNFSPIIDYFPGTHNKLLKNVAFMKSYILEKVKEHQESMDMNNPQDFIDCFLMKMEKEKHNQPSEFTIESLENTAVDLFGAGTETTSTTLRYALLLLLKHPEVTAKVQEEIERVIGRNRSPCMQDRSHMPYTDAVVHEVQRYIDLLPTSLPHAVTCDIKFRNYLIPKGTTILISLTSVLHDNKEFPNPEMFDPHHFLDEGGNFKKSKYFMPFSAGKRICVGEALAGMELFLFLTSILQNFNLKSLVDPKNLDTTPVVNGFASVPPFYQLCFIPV

[31] = target: Cytochrome P450 2C19 (Homo sapiens, UniProt P33261); experiment: Inhibition of CYP2C19 (unknown origin); format: ADME
Sequence of Cytochrome P450 2C19 (P33261 whole entry): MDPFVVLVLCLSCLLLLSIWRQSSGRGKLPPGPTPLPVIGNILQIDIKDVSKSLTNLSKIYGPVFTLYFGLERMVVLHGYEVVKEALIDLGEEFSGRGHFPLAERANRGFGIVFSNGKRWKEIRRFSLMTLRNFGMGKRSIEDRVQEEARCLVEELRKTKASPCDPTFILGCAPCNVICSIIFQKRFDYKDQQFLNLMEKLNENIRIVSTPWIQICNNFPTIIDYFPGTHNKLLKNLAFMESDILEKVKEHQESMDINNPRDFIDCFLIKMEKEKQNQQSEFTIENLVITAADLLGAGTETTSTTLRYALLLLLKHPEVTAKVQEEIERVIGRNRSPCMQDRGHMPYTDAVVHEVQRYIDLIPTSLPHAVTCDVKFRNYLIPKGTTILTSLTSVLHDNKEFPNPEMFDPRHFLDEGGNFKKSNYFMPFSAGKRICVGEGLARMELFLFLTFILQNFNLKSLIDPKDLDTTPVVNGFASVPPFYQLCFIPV

[32] = target: T1, Cytochrome P450 1A2 (Homo sapiens, UniProt P05177); experiment: Inhibition of CYP1A2 (unknown origin); format: ADME
T1 sequence (P05177 whole entry): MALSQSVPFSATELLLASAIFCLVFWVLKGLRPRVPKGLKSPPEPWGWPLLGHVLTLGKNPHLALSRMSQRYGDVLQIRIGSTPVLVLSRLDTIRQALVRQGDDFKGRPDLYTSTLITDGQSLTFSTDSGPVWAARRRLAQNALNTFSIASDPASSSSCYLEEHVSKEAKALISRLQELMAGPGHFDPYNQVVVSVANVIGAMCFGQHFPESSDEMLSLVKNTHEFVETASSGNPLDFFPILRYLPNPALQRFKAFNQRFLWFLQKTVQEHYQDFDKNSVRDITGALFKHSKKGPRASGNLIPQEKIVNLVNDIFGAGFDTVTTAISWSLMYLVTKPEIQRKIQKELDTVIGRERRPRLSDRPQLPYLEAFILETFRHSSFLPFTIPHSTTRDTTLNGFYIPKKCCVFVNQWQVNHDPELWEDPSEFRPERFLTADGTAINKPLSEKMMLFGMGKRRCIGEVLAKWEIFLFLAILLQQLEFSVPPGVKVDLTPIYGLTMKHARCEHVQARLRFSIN

[33] = Half life in Wistar rat at 1 mg/kg, iv; format: ADME, organism-based; set-up: dose 1 mg/kg, route intravenous; settings: in vivo
[34] = AUC in Wistar rat at 1 mg/kg, iv; format: ADME, organism-based; set-up: dose 1 mg/kg, route intravenous; settings: plasma
[35] = Clearance in Wistar rat at 1 mg/kg, iv; format: ADME, organism-based; set-up: dose 1 mg/kg, route intravenous; settings: in vivo
[36] = Volume of distribution at steady state in Wistar rat at 1 mg/kg, iv; format: ADME, organism-based; set-up: dose 1 mg/kg, route intravenous; settings: in vivo, read-out: Vdss
[37] = Oral bioavailability in Wistar rat at 5 mg/kg; format: ADME, organism-based; settings: in vivo
[38] = Half life in Wistar rat at 5 mg/kg, po; format: ADME, organism-based; set-up: dose 5 mg/kg, route oral; settings: in vivo
[39] = Cmax in Wistar rat at 5 mg/kg, po; format: ADME, organism-based; set-up: dose 5 mg/kg, route oral; settings: in vivo
[40] = test system: Plasmodium berghei; experiment: Antiplasmodial activity against Plasmodium berghei ANKA expressing GFP infected in BALB/c mouse assessed as reduction of viable parasites at 50 mg/kg, po qd for 4 days by flow cytometry; format: functional
[41] = test system: Plasmodium berghei; experiment: Antiplasmodial activity against Plasmodium berghei ANKA expressing GFP infected in BALB/c mouse assessed as host survival days at 50 mg/kg, po qd for 4 days; format: functional
[42] = test system: Plasmodium falciparum; experiment: microbe, parasite or virus in culture; settings: NF54, 72 h
[43] = test system: Plasmodium falciparum; experiment: microbe, parasite or virus in culture; settings: K1, 72 h
[44] = test system: Mus musculus; experiment: AUC (0 to 23 hrs) in Plasmodium falciparum 3D70087/N9 infected NODscidIL2Rgamma-null mouse at 10 mg/kg, po by LC-MS/MS analysis; settings: in vivo
[45] = test system: Mus musculus; experiment: AUC (0 to 23 hrs) in Plasmodium falciparum 3D70087/N9 infected NODscidIL2Rgamma-null mouse at 30 mg/kg, po by LC-MS/MS analysis; settings: in vivo
[46] = test system: Mus musculus; experiment: AUC (0 to 23 hrs) in Plasmodium falciparum 3D70087/N9 infected NODscidIL2Rgamma-null mouse at 50 mg/kg, po by LC-MS/MS analysis; settings: in vivo
[47] = test system: Plasmodium berghei; experiment: Antiplasmodial activity against Plasmodium berghei ANKA expressing GFP infected in BALB/c mouse assessed as host survival days at 30 mg/kg, po qd for 4 days; format: functional

SMILES: CC(Oc1ccc2nc(N)n(CC(O)c3ccc(C(F)(F)F)cc3Cl)c2n1)C(F)(F)F (racemic)
- Cmax [1]: 600 ng/mL
- Cmax [2]: 360 ng/mL
- Cmax [3]: 680 ng/mL
- Cmax [4]: 1070 ng/mL
- Cmax/dose [5]: 0.019 µg/mL/mg/kg
- Cmax/dose [6]: 0.035 µg/mL/mg/kg
- Cmax/dose [7]: 0.022 µg/mL/mg/kg
- Cmax/dose [8]: 0.021 µg/mL/mg/kg
- Tmax [9]: 30 min
- Tmax [10]: 2 h
- Tmax [11]: 6 h
- Tmax [12]: 4 h
- AUC(0-t) at 23 h [13]: 480 ng·h/mL
- AUC(0-t) at 23 h [14]: 2700 ng·h/mL
- AUC(0-t) at 23 h [15]: 6930 ng·h/mL
- AUC(0-t) at 23 h [16]: 10400 ng·h/mL
- AUC/dose [17]: 0.16 µg·h/mL/mg/kg
- ED90 [18]: 28.6 mg/kg
- AUC [19]: 6.55 ug.hr/ml/day
- selectivity ratio [20]: > 325
- IC50 [21]: > 33.3 µM
- hepatocyte CLint [22]: 43 µL/min/1e6 cells
- microsomal CLint [23]: 32 µL/min/mg
- microsomal CLint [24]: 19 µL/min/mg
- solubility [25]: 5 µM (≈ 2.34 µg/mL)
- logD [26]: > 4.5
- fraction unbound [27]: < 0.01
- IC50 [28]: 20.3 µM
- IC50 [29]: 28.3 µM
- IC50 [30]: 22.9 µM
- IC50 [31]: 4.7 µM
- IC50 [32]: > 30 µM
- half-life [33]: 106 min
- AUC [34]: 1.66 µM·h
- clearance [35]: 22.6 mL/min/kg
- Vd [36]: 2.49 L/kg
- bioavailability [37]: 100%
- half-life [38]: 430 min
- Cmax [39]: 2040 nM
- Activity [40]: 94%
- Survival [41]: 12 days
- IC50 [42]: 40 nM
- IC50 [43]: 5 nM
- AUC [44]: 0.9 µg·h/mL
- AUC [45]: 2.31 µg·h/mL
- AUC [46]: 3.48 µg·h/mL

SMILES: CCN(CC)CCCC(C)Nc1ccnc2cc(Cl)ccc12 (configuration not stated) [CHLOROQUINE]
- Survival [47]: 27 days
